# From patent publication US20240158447A1, “PEPTIDES FOR USE IN THE TREATMENT OR PREVENTION OF MYOCARDIAL DAMAGE” (THE UNIVERSITY OF WESTERN AUSTRALIA, priority 2020, published 2024)
# “Also recorded” adds a separate entry of the source.
# Key:
# Guinea pig hearts = assay: Myocardial ischemia-reperfusion injury, Langendorff hearts ex vivo (CK, LDH, GSH:GSSG); conditions: for Creatine Kinase (CK) activity in perfusate: FIG. 6(a); for Lactate Dehydrogenase (LDH) activity in perfusate: FIG. 6(b); for GSH:GSSG ratio in whole heart tissue: FIG. 6(c)
# Protocol: Adult male guinea pigs were anesthetized with pentobarbitone sodium (240 mg/kg) via intraperitoneal injection prior to excision of the heart. Guinea pig hearts were cannulated onto a Langendorff apparatus via the aorta and perfused retrogradely with Ca^2+ containing KHB comprising (in mM): 120 NaCl, 25 NaHCO3, 4.8 KCl, 2.2 MgSO4, 1.2 NaH2PO4, 11 glucose and 1.5 CaCl2 (pH=7.35 with O2/CO2 at 37° C.) at 37° C. for 30 min at a rate of 7 mL/min, followed by 30 min no-flow ischemia, then 30 min reperfusion as previously described.
# Perfusates were collected 20 and 25 min pre-ischemia and 20 and 30 min following reperfusion. A single dose of 0.5-10 μM AID(S)-TAT, AID-TAT, peptide 6 or peptide 7 was added to Ca^2+-containing KHB solution just prior to reperfusion. Creatine Kinase (CK) and Lactate Dehydrogenase (LDH) activity was measured in perfusates collected pre- and post-ischemia, and post-ischemia values normalized to pre-ischemia values.
# For each sample, 10 μL of perfusate was added to 100 μL CK enzyme reagent (CK NAC-activated diagnostic kit, Randox Laboratories) and the rate of increase in absorbance recorded over 15 min at 30° C. using a spectrophotometer (PowerWave XS, BioTek, 340 nm).
# To determine LDH activity, 150 μL of each sample was mixed with 50 μL of LDH reagent (50 mM imidazole buffer, 375 μM NADH, pyruvate and 0.05% BSA, pH=7) and the rate of decrease in absorbance recorded over 15 min at 25° C. using a spectrophotometer (PowerWave XS, BioTek, 340 nm).
# GSSG was calculated by subtracting GSH from total glutathione.
# cTnI-G203S mice = assay: Myocardial fibrosis, Masson's Trichrome collagen volume fraction; format: in vivo, mouse; conditions: 5 μM, 3×/wk/5 wk from 20 weeks of age; versus cTnI-G203S AID(S)-TAT; FIG. 14
# Description: Following completion of treatment regimes, mouse hearts were extracted and prepared for Masson's Trichchrome staining based on previously described methods with minor modifications (Van De Vlekkert D, Machado E, d'Azzo A. Analysis of Generalized Fibrosis in Mouse Tissue Sections with Masson's Trichrome Staining. Bio Protoc. 2020; 10(10):e3629). Hearts were washed in PBS and fixed overnight in 10% buffered formalin saline (FSAL-5L; Hurst Scientific, AUS). After fixation, hearts were washed 3×10 min in PBS and incubated overnight in 30% sucrose solution (in PBS). […]
# To observe the levels of cardiac fibrosis in mice, a minimum of 15 sections of microscopic fields for each animal were selected randomly for histological analysis. Images of heart sections were obtained using a Nikon upright light microscope (DS-Qi2, Japan) at 20× magnification and analysed using ImageJ (NIH). […]
# Here we assessed the efficacy of treating 20-week-old pre-hypertrophic cTnI-G203S mice with 5 μM AID-TAT variant peptides (3×/wk/5 wk) on the development and progression of fibrosis. […] Images were acquired using a Nikon Upright Microscope and collagen volume fraction (%) was determined using ImageJ colour thresholding. […] Values reported as mean±SEM; P values compared with cTnI-G203S AID(S)-TAT as determined by the Kruskal-Wallis test.
# [1] = test system: wild type cardiac myocytes; assay: Intracellular superoxide (DHE) after H2O2 in cardiac myocytes; format: cell-based, mouse; conditions: 20 min incubation with 0.5-1 μM peptide; 30 μM H2O2 5 min; FIG. 3(b)
# Protocol: Adult male C57BL/6J mice were anesthetized with pentobarbitone sodium (240 mg/kg) via intraperitoneal injection prior to excision of the heart. Ventricular myocytes were isolated. Mouse hearts were cannulated onto a Langendorff apparatus via the aorta and perfused retrogradely with Krebs-Henseleit Buffer (KHB) containing (in mM): 120 NaCl, 25 NaHCO3, 4.8 KCl, 2.2 MgSO4, 1.2 NaH2PO4 and 11 glucose (pH=7.35 with O2/CO2 at 37° C.) for 4 min at 37° C. Hearts were then perfused with KHB supplemented with 2.4 mg/ml collagenase B for 3 min, then 8 min perfusion in the presence of 40 μM calcium. Following perfusion, aorta and atria were removed, and ventricles gently teased apart and triturated to dissociate myocytes into suspension. […]
# All in vitro studies were performed in freshly isolated myocytes at 37° C. […] Following a 20 min incubation with 0.5-1 μM AID(S)-TAT, AID-TAT, peptide 6 or peptide 7, fluorescent signal of individual myocytes was quantified using Metamorph 6.3 to measure signal intensity of manually traced cell regions. […]
# Superoxide generation was assessed in cardiac myocytes using the fluorescent indicator dihydroethidium (DHE, 5 μM, 515-560 nm ex filter, 590 long pass em, Merck). […] Fluorescence was reported as percentage change in the slope of the signal measured at 20-40 min (treatment) over 1-10 min (pre-treatment).
# [2] = 0.5 μM peptide added just prior to reperfusion
# [3] = 1 μM peptide added just prior to reperfusion
substance,measurement,setting,value
AIDP7-TAT: QQQEEDLKGYLDWITQAE with TAT sequence,Creatine Kinase (CK) activity in perfusate,Guinea pig hearts; [2],reduced compared to the AID(S)-TAT peptide; also recorded: reduced in both P7-TAT (1 μM) and P7-TAT (0.5 μM) compared to the P6-TAT peptide; also recorded: at least as effective as AID-TAT (1 μM)
same,Lactate Dehydrogenase (LDH) activity in perfusate,Guinea pig hearts; [2],reduced compared to the AID(S)-TAT peptide; also recorded: reduced LDH at least as well as AID-TAT (1 μM)
same,GSH:GSSG ratio in whole heart tissue,Guinea pig hearts; 0.5 μM peptide,"statistically significant increase in the GSH:GSSG ratio, comparable to the AID-TAT samples at 10 μM"
same,Creatine Kinase (CK) activity in perfusate,Guinea pig hearts; [3],reduced compared to the AID(S)-TAT peptide; also recorded: reduced in both P7-TAT (1 μM) and P7-TAT (0.5 μM) compared to the P6-TAT peptide
same,Lactate Dehydrogenase (LDH) activity in perfusate,Guinea pig hearts; [3],reduced compared to the AID(S)-TAT peptide
same,GSH:GSSG ratio in whole heart tissue,Guinea pig hearts; 1 μM peptide,"statistically significant increase in the GSH:GSSG ratio, comparable to the AID-TAT samples at 10 μM"
same,"oxidative stress (CK activity, LDH activity and GSH:GSSG ratio taken together)",Guinea pig hearts; same concentration or lower dosages of P7-TAT versus AID-TAT,more effective than AID-TAT at reducing oxidative stress
same,"left ventricular posterior wall collagen volume fraction (CVF, %)",cTnI-G203S mice,significantly decreased
same,H2O2 induced superoxide production (DHE),[1],reduced the generation of superoxide in a statistically significant manner
